Key:
reader domain of YTHDF1 = reader domain of YTHDF1 (Homo sapiens, UniProt Q9BYJ9); conditions: from residual signal at 1 mM, Table S1
reader domain of YTHDF3 = reader domain of YTHDF3 (Homo sapiens, UniProt Q7Z739); conditions: from residual signal at 1 mM, Table S1
[1] = prevented HTRF measurement
[2] = target: m^6A reader domain of YTHDF2 (Homo sapiens, UniProt Q9Y5A9); conditions: for Potency/affinity for YTHDF2 (in words): HTRF, comparison within Table 1
Chain of m^6A reader domain of YTHDF2 (Q9Y5A9 383-579): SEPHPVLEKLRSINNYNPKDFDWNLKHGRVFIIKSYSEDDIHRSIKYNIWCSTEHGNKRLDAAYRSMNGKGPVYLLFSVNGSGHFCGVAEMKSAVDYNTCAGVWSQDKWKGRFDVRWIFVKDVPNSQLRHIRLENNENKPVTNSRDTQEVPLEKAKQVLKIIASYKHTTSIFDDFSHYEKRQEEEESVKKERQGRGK

Chain of reader domain of YTHDF1 (Q9BYJ9 361-559): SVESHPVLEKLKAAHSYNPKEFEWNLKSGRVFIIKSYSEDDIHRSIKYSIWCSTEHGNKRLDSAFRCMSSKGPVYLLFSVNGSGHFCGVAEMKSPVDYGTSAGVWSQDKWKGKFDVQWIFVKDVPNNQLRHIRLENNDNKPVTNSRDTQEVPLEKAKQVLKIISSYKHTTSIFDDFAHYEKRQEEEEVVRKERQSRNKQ
Chain of reader domain of YTHDF3 (Q7Z739 391-585): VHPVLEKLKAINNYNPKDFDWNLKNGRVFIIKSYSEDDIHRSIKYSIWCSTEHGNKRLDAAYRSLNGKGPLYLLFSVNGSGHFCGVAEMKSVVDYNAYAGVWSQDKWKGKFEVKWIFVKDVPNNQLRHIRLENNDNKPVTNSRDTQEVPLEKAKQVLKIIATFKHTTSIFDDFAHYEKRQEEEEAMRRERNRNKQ

Which results are given for `CNc1ncnc2c(C)[nH]nc12` [Compound 5]?
Affinity for YTHDF1 (in words) (reader domain of YTHDF1): weak affinity; Affinity for YTHDF3 (in words) (reader domain of YTHDF3): weak affinity

With `CNc1nc(NC)c2ncn(C)c2n1` [Compound 3] as the compound, how does the “Solubility (in words)” value [1] read?
Its value is “poor solubility”.

What does the source list for `O=c1cc(C2CC2)[nH]c(=O)[nH]1` [Compound 11, 6-cyclopropyluracil]?
Potency/affinity for YTHDF2 (in words) [2]: substantially higher; Ligand efficiency ([2]; calculated from YTHDF2 IC50): 0.47 kcal mol^–1 per non-hydrogen atom

Which “Potency/affinity for YTHDF2 (in words)” value [2] does the source give for `COc1cc(=O)[nH]c(=O)[nH]1` [Compound 10, 6-methoxyuracil] here?
The value was “does not provide higher affinity”.

For `CNc1ncnc2c(-c3ccccc3)[nH]nc12` [Compound 7], which “Selectivity for YTHDF2 against YTHDF1 and YTHDF3 (in words)” value ([2]; from residual signal at 1 mM, Table S1) is on record?
Its value is “modest selectivity”.

For `CNc1ncnc2c1ncn2[C@@H]1O[C@H](CO)[C@@H](O)[C@H]1O` [m^6A, N6-methyladenosine, reference compound], which “Potency/affinity for YTHDF2 (in words)” value [2] is on record?
Its value is “not able to reduce the emitted signal even at high concentrations”.

For `Cc1[nH]nc2c(NC3CC3)ncnc12` [Compound 6], which “Potency/affinity for YTHDF2 (in words)” value [2] is on record?
The value was “lower than the one observed for its parent compound 5”.

For `CNc1ncnc2c(Br)[nH]nc12` [Compound 8], which “Potency/affinity for YTHDF2 (in words)” value [2] is on record?
The value was “nor any improvement in potency with respect to the methyl of 5”.

Source: PMC9466600 (ACS Medicinal Chemistry Letters, 2022)
